# Measurements as given in US20250049741A1, “COMPOSITION FOR PREVENTING OR TREATING ALZHEIMER'S DISEASE COMPRISING PHOSPHOLIPASE C ACTIVATOR AS AN ACTIVE INGREDIENT” (Korea University Research and Business Foundation, priority 2021, published 2025).
# How the values were obtained:
# [1] = test system: hippocampal CA3-CA1 excitatory synapses; experiment: S-eCB mobilization induced spike timing-dependent potentiation (tLTP) protocol, EPSP slope; type: cell-based, Sprague-Dawley rats; details: m-3M3FBS 30 μM; AβO-treated rat hippocampal slices; similar to level in DMSO-treated slices
# Description: Soluble AβO was prepared according to a previous study (BMC Biol. 2020; 18(1):7). Specifically, Aβ1-42 (Aβ) and a scrambled form of Aβ as a control peptide were purchased in powder form. Aβ and scrambled Aβ were dissolved for monomerization in 1,1,1,3,3,3-hexafluoro-2-propanol (HFIP, Sigma Aldrich, USA) at a final concentration of 1 mM, and the solution was incubated for 90 minutes. After the HFIP was evaporated, the remaining thin and clear film of Aβ or scrambled Aβ was dissolved in dimethyl sulfoxide (DMSO, Sigma Aldrich, USA) to prepare 5 mM Aβ or scrambled Aβ stocks, which were aliquoted and frozen at −20° C. Aβ or scrambled Aβ stocks were thawed and diluted to 100 μM in artificial cerebrospinal fluid (ACSF). Thereafter, Aβ or scrambled Aβ stocks were incubated for oligomerization for 18 hours. The final AβO or scrambled AβO stock solution was diluted to a final concentration of 200 nM in 31.2 ml of ACSF, and rat hippocampal slices were treated with the stock solution for 20 minutes in a recovery chamber before measurement of brain signals. In control experiments for normal brain conditions using a vehicle, rat hippocampal slices were treated with 0.004% DMSO in ACSF.
# The brains of SD rats were isolated following decapitation under isoflurane-induced anesthesia and transferred into ice-cold ACSF containing 126 mM NaCl, […], 1.25 mM NaH2PO4, 2 mM MgSO4, 2 mM CaCl2), 25 mM NaHCO3, and 10 mM glucose (pH 7.2 to 7.4). The ACSF was continuously oxygenated with 95% O2/5% CO2. Horizontal hippocampal slices (350 μm thickness) were obtained using a vibratome (VT1000S, Leica Biosystems, Germany) and immediately incubated at room temperature in a submerged chamber perfused with oxygenated ACSF for at least 1 hour.
# PLCβ1 = experiment: Western blot of hippocampal PLCβ1 after stereotaxic drug injection in 5XFAD mice; type: in vivo; details: m-3M3FBS (50 μM, 0.5 μl per site) injected into dorsal and ventral bilateral hippocampi; three days after injection
# Excerpt: To test the acute effect of AβO on hippocampal S-eCB mobilization, hippocampal slices from Sprague-Dawley rats (SD, 2 to 3 weeks old, […] Biolink, Co., Ltd., Korea) were used. Male and female rats were used in all in vitro experiments. To test the chronic effect of AβO on hippocampus-dependent memory impairments caused by amyloidosis, the 5XFAD mouse model (6 to 7 months old, #34840-JAX, Jackson Laboratory, USA), which is a mouse model of Alzheimer's disease that mimics AβO depositions, was used. C57BL/6 mice (6 to 7 months old, KOATECH, Korea) were used as wild type (WT) control mice for 5XFAD mice. Male 5XFAD and C57BL/6 mice were used for all in vivo behavioral experiments. The 5XFAD mouse genotypes were identified by polymerase chain reaction (PCR) using DNA extracted from the tails of the mice. All animal-related procedures followed the guidelines of the Institutional Animal Care and Use Committee of Korea University (guidelines for SD rats: KUIACUC-2017-103, guidelines for C57BL/6 and 5XFAD mice: KUIACUC-2019-0068). […] Immunoreactivity was confirmed with enhanced chemiluminescence (Bio-Rad, USA) using a Fluorchem E system (ProteinSimple, USA) and analyzed with ImageJ software. […]
smiles,measurement,setting,value
Cc1cc(C)c(S(=O)(=O)Nc2cccc(C(F)(F)F)c2)c(C)c1 [m-3M3FBS],tLTP in AβO-treated slices,[1],completely recovered
same,hippocampal PLCβ1 protein levels in 5XFAD mice,PLCβ1,completely recovered
